Our source for the K ass values is ChEMBL document CHEMBL1132507, “Dibasic benzo[B]thiophene derivatives as a novel class of active site directed thrombin inhibitors: 4. SAR studies on the conformationally restricted C3-side chain of hydroxybenzo[B]thiophenes” (Bioorg Med Chem Lett, 1999).

The target in the test is Prothrombin (Homo sapiens) (UniProt P00734). The test can be described thus: Apparent association constant towards thrombin.
Turning to `COc1cc(Cc2c(-c3ccc(OCCN4CCCC4)cc3)sc3cc(O)ccc23)ccc1O[C@@H]1CCCC[C@H]1N(C)C`, the K ass is 1.46e+08 l M-1. To `COc1cccc2c(Cc3ccc(O[C@@H]4CCCC[C@H]4N4CCCCC4)cc3)c(-c3ccc(OCCN4CCCC4)cc3)sc12` belongs 118000 l M-1; to `Oc1ccc2c(Cc3ccc(O[C@@H]4CCC[C@H]4N4CCCCC4)cc3)c(-c3ccc(OCCN4CCCC4)cc3)sc2c1`, 4.73e+07 l M-1.

`Oc1ccc2c(Cc3ccc(O[C@@H]4CCCC[C@H]4N4CCCCC4)cc3)c(-c3ccc(OCCN4CCCC4)cc3)sc2c1`: the K ass was 2.12e+08 l M-1. Turning to `Oc1ccc2c(Cc3ccc(O[C@@H]4CCCC[C@H]4N4CCCCC4)nc3)c(-c3ccc(OCCN4CCCC4)cc3)sc2c1`, the K ass is 9.61e+07 l M-1. With `Oc1cccc2sc(-c3ccc(OCCN4CCCC4)cc3)c(Cc3ccc(O[C@@H]4CCCC[C@H]4N4CCCCC4)cc3)c12`, the K ass was 1.73e+06 l M-1. With `Oc1ccc2c(Cc3ccc(O[C@@H]4CCCC[C@H]4N4CCOCC4)cc3)c(-c3ccc(OCCN4CCCC4)cc3)sc2c1`, the K ass is 1.81e+07 l M-1. Regarding `Cc1cc(Cc2c(-c3ccc(OCCN4CCCC4)cc3)sc3cc(O)ccc23)ccc1O[C@@H]1CCCC[C@H]1N1CCCC1`, the K ass is 3.49e+08 l M-1. With `Oc1ccc2c(Cc3ccc(O[C@@H]4CCCC[C@H]4n4ccnc4)cc3)c(-c3ccc(OCCN4CCCC4)cc3)sc2c1`, the K ass is 8.08e+06 l M-1. With `Oc1ccc2c(Cc3ccc(O[C@@H]4CCCC[C@H]4N4CCCCC4)c(F)c3)c(-c3ccc(OCCN4CCCC4)cc3)sc2c1`, the K ass is 2.03e+08 l M-1. Turning to `c1ccc2c(Cc3ccc(O[C@@H]4CCCC[C@H]4N4CCCCC4)cc3)c(-c3ccc(OCCN4CCCC4)cc3)sc2c1`, the K ass is 2.04e+07 l M-1.

With `Oc1ccc2c(Cc3ccc(O[C@@H]4CCCC[C@H]4N4CCCCCC4)cc3)c(-c3ccc(OCCN4CCCC4)cc3)sc2c1`, the K ass is 7.48e+07 l M-1. As for `CCN(CC)[C@@H]1CCCC[C@H]1Oc1ccc(Cc2c(-c3ccc(OCCN4CCCC4)cc3)sc3cc(O)ccc23)cc1`, the K ass is 4.98e+07 l M-1. Turning to `Oc1ccc2c(Cc3ccc(O[C@@H]4CCCC[C@H]4N4CCCC4)c(C(F)(F)F)c3)c(-c3ccc(OCCN4CCCC4)cc3)sc2c1`, the K ass is 6.84e+07 l M-1. With `Oc1ccc2c(Cc3ccc(O[C@@H]4CCCC[C@H]4N4CCCC4)c(Br)c3)c(-c3ccc(OCCN4CCCC4)cc3)sc2c1`, the K ass was 2.8e+08 l M-1. For the compound `COc1cc(Cc2c(-c3ccc(OCCN4CCCC4)cc3)sc3cc(O)ccc23)ccc1O[C@@H]1CCCC[C@H]1N1CCCC1`, the K ass was 3.09e+08 l M-1.

With `Oc1cccc2c(Cc3ccc(O[C@@H]4CCCC[C@H]4N4CCCCC4)cc3)c(-c3ccc(OCCN4CCCC4)cc3)sc12`, the K ass was 1.08e+06 l M-1. For the compound `Oc1ccc2c(Cc3ccc(O[C@@H]4CCCC[C@H]4N4CCCC4)c(F)c3)c(-c3ccc(OCCN4CCCC4)cc3)sc2c1`, the K ass was 1.21e+08 l M-1.

Turning to `Oc1ccc2c(Cc3ccc(O[C@@H]4CCCC[C@H]4N4CCCC4)cc3)c(-c3ccc(OCCN4CCCC4)cc3)sc2c1`, the K ass was 2.18e+08 l M-1. For `O=C(c1ccc(O[C@@H]2CCCC[C@H]2N2CCCC2)cc1)c1c(-c2ccc(OCCN3CCCC3)cc2)sc2ccccc12`, the K ass was 510000 l M-1.

Consider `CN(C)[C@@H]1CCCC[C@H]1Oc1ccc(Cc2c(-c3ccc(OCCN4CCCC4)cc3)sc3cc(O)ccc23)cc1`, for which the K ass was 5.11e+07 l M-1. For the compound `COc1ccc2sc(-c3ccc(OCCN4CCCC4)cc3)c(Cc3ccc(O[C@@H]4CCCC[C@H]4N4CCCCC4)cc3)c2c1`, the K ass was 3.65e+07 l M-1. With `O=C(c1ccc(O[C@@H]2CCCC[C@H]2N2CCCCCC2)cc1)c1c(-c2ccc(OCCN3CCCC3)cc2)sc2ccccc12`, the K ass is 490000 l M-1. Turning to `Oc1ccc2c(Cc3ccc(O[C@@H]4CCCC[C@H]4N4CCCC4)c(O)c3)c(-c3ccc(OCCN4CCCC4)cc3)sc2c1`, the K ass was 1.12e+07 l M-1. As to `O=C(c1ccc(O[C@@H]2CCCC[C@H]2N2CCCCC2)cc1)c1c(-c2ccc(OCCN3CCCC3)cc2)sc2ccccc12`, the K ass was 1.17e+06 l M-1.

Regarding `COc1ccc2c(Cc3ccc(O[C@@H]4CCCC[C@H]4N4CCCCC4)cc3)c(-c3ccc(OCCN4CCCC4)cc3)sc2c1`, the K ass was 3.83e+06 l M-1.

`COc1cc(Cc2c(-c3ccc(OCCN4CCCC4)cc3)sc3cc(O)ccc23)ccc1O[C@@H]1CCCC[C@H]1N1CCCCC1`: the K ass is 1.16e+08 l M-1.

With `Oc1ccc2sc(-c3ccc(OCCN4CCCC4)cc3)c(Cc3ccc(OC4CCCC[C@H]4N4CCCCC4)cc3)c2c1` (stereo partly drawn), the K ass was 1.39e+07 l M-1.
